The values that follow come from PMC7611149 (ACS chemical biology, 2018).

The target of one assay is CpOGA (Clostridium perfringens, UniProt Q0TR53). The assay can be described thus: biochemical. Format: binding.
In a further assay the target is T1, human OGA (hOGA) (Homo sapiens, UniProt O60502).
T1 sequence (O60502 60-336 limits assumed): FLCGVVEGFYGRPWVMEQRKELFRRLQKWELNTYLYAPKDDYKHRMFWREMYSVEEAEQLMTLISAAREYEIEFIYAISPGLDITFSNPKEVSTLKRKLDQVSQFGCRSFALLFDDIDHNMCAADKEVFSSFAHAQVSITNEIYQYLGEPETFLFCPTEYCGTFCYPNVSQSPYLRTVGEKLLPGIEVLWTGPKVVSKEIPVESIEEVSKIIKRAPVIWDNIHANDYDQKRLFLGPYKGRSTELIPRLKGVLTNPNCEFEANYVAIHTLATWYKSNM
Kind of assay: Fluorescence polarization displacement of GlcNAcstatin BF from hOGA. The class given is binding. The settings on record: FP displacement, 50 nM GlcNAcstatin BF, 250 nM hOGA, TBS pH 7.5. (In general: In fluorescence polarisation assays a small probe gives low polarisation when free and higher when bound to something large.)

The pKi is the Ki on a negative log10 scale, so that one unit is a factor of ten. The low end stands for a high Ki, the high end for a low Ki.

Each structure is given as a SMILES string. pKi: −log10 of the molar value.

Sequence of CpOGA (Q0TR53 31-1001 limits assumed): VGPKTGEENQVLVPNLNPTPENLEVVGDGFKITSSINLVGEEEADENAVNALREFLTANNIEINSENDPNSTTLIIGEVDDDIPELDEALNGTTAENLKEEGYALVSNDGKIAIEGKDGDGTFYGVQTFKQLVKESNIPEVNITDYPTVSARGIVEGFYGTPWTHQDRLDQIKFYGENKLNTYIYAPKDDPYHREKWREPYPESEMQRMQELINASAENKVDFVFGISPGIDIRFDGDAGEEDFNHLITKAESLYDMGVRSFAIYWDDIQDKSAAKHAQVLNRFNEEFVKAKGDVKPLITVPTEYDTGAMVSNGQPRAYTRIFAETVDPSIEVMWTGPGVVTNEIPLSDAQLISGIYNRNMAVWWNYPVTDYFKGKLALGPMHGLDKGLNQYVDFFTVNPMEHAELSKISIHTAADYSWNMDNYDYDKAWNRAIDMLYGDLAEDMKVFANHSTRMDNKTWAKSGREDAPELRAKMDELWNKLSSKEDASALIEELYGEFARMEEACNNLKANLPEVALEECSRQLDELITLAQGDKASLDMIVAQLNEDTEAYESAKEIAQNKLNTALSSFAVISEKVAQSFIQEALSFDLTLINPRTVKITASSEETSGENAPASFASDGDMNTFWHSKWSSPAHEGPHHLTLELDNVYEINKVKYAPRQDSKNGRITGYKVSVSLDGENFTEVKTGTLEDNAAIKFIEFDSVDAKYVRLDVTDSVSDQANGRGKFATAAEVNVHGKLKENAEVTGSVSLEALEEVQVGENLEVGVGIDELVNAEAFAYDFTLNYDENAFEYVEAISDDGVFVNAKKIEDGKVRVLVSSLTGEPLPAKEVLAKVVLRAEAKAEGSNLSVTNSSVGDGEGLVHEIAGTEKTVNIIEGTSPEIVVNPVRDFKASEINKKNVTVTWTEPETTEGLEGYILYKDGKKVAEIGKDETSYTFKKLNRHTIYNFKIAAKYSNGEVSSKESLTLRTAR

On CpOGA, `FC(F)(F)C1=NCCNC=C1` [5TFD, 5-(trifluoromethyl)-2,3-dihydro-1H-1,4-diazepine] showed a pKi of 3.84.
On human OGA (hOGA), `CC(=O)N[C@H]1c2nc(CCc3ccccc3)cn2[C@H](CO)[C@@H](O)[C@@H]1O` [GlcNAcstatin B] gave a pKi of 7.63.
